# Experimental data from ChEMBL document CHEMBL1137323, “Discovery of [4-Amino-2-(1-methanesulfonylpiperidin-4-ylamino)pyrimidin-5-yl](2,3-difluoro-6- methoxyphenyl)methanone (R547), a potent and selective cyclin-dependent kinase inhibitor with significant in vivo antitumor activity” (J Med Chem, 2006).
# pKi: −log10 of the molar value.
# What was measured:
# [1] = target: Cyclin-dependent kinase 1 (Homo sapiens, UniProt P06493)
# Description: Inhibition of CDK1/Cyclin B
# [2] = target: Cyclin-dependent kinase 2 (Homo sapiens, UniProt P24941)
# Description: Inhibition of CDK2/Cyclin E
# [3] = target: Cyclin-dependent kinase 4/cyclin D1 (Homo sapiens, UniProt P11802)
# Cyclin-dependent kinase 4/cyclin D1, sequence (P11802 whole entry): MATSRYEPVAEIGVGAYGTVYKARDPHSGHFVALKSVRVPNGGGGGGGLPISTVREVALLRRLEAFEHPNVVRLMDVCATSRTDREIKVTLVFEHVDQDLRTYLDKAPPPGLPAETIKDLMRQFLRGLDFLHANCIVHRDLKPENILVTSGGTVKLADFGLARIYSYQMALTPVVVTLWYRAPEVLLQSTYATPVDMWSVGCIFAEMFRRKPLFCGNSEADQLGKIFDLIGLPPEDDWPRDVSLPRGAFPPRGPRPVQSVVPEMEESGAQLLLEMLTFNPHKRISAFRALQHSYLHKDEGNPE
# Cyclin-dependent kinase 4/cyclin D1, sequence (P24385 whole entry, further chain): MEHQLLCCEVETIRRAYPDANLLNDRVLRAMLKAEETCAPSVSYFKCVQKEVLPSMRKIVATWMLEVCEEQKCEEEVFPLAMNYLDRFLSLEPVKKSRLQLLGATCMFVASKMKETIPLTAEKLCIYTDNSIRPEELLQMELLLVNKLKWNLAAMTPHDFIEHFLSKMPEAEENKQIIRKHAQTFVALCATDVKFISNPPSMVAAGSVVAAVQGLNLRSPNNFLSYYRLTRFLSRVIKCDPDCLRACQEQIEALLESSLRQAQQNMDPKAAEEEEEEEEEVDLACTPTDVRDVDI
# Description: Inhibition of CDK4/Cyclin D1
# in vivo [4] = conditions: nude, mouse, iv, 10 mg/kg
# Description: Volume of distribution in nude mouse at 10 mg/kg, iv
# in vivo [5] = conditions: nude, mouse, iv, 10 mg/kg; remark: listed apart in the source
# Description: Clearance in nude mouse at 10 mg/kg, iv
# Cyclin-dependent kinase 1, sequence (P06493 whole entry): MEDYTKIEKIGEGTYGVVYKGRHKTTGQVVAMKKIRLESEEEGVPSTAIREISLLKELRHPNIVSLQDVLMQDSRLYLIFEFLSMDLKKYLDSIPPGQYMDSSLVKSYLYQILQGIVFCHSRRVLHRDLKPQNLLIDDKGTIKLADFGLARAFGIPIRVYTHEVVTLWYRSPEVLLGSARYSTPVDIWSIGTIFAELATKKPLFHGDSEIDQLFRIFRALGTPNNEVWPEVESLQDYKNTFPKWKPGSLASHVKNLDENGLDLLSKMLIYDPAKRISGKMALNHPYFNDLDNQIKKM
Compound,pKi [1],pKi [2],pKi [3],Vd (in vivo [4]) [L/kg],clearance (in vivo [5]) [mL/min/kg]
COc1cc(F)c(F)c(F)c1C(=O)c1cnc(NC2CCN(S(C)(=O)=O)CC2)nc1N,8.30,8.70,9.00,–,–
CCOC(=O)N1CCC(Nc2ncc(C(=O)c3ccccc3F)c(N)n2)CC1,5.79,5.50,6.13,–,–
COc1c(C(=O)c2cnc(NC3CCN(S(C)(=O)=O)CC3)nc2N)cc(F)c(F)c1F,5.78,6.31,6.57,–,–
CCOC(=O)N1CCC(Nc2ncc(C(=O)c3ccccc3C)c(N)n2)CC1,5.96,5.66,6.18,–,–
CN1CCN(c2ccc(Nc3ncc(C(=O)c4cccc(F)c4)c(N)n3)cc2)CC1,< 5.00,< 5.00,6.35,–,–
COc1ccccc1C(=O)c1cnc(NC2CCN(C)CC2)nc1N,5.18,< 5.00,< 6.00,–,–
CN1CCN(c2ccc(Nc3ncc(C(=O)c4cccc(C(F)(F)F)c4)c(N)n3)cc2)CC1,< 5.00,< 5.00,< 6.00,–,–
COc1cc(F)c(F)cc1C(=O)c1cnc(NC2CCN(S(C)(=O)=O)CC2)nc1N,7.85,8.22,8.22,–,–
CCOc1ccccc1C(=O)c1cnc(NC2CCN(C(C)=O)CC2)nc1N,5.60,5.69,6.01,–,–
CCOC(=O)N1CCC(Nc2ncc(C(=O)c3ccccc3OC)c(N)n2)CC1,6.61,6.22,6.96,–,–
COc1ccccc1C(=O)c1cnc(NC2CCN(C(C)=O)CC2)nc1N,6.74,6.49,7.18,–,–
CS(=O)(=O)N1CCC(Nc2ncc(C(=O)c3c(F)cccc3F)c(N)n2)CC1,7.42,7.82,7.77,–,–
COc1ccc(F)cc1C(=O)c1cnc(NC2CCN(S(C)(=O)=O)CC2)nc1N,7.85,8.15,8.15,0.885,48.3
COc1cc(F)ccc1C(=O)c1cnc(NC2CCN(S(C)(=O)=O)CC2)nc1N,6.71,7.08,7.68,–,–
COc1ccccc1C(=O)c1cnc(Nc2ccc(N3CCN(C)CC3)cc2)nc1N,5.90,5.29,6.80,–,–
CCCC(=O)N1CCC(Nc2ncc(C(=O)c3ccccc3OC)c(N)n2)CC1,6.56,6.05,7.01,–,–
CN1CCN(c2ccc(Nc3ncc(C(=O)c4ccccc4C(F)(F)F)c(N)n3)cc2)CC1,< 5.00,< 5.00,6.09,–,–
CCS(=O)(=O)N1CCC(Nc2ncc(C(=O)c3ccccc3OC)c(N)n2)CC1,7.37,7.29,7.80,–,–
COc1ccc(Cl)cc1C(=O)c1cnc(NC2CCN(S(C)(=O)=O)CC2)nc1N,6.88,6.35,7.44,–,–
COc1cccc(F)c1C(=O)c1cnc(NC2CCN(S(C)(=O)=O)CC2)nc1N,7.77,7.89,8.52,–,–
CCNC(=O)N1CCC(Nc2ncc(C(=O)c3ccccc3OC)c(N)n2)CC1,5.82,5.76,6.39,–,–
COc1ccccc1C(=O)c1cnc(NC2CCNCC2)nc1N,5.23,5.20,6.32,–,–
COc1cccc(C(=O)c2cnc(Nc3ccc(N4CCN(C)CC4)cc3)nc2N)c1,< 5.00,< 5.00,< 6.00,–,–
Cc1ccccc1C(=O)c1cnc(Nc2ccc(N3CCN(C)CC3)cc2)nc1N,< 5.00,< 5.00,6.23,–,–
